According to patent US20250289855A1, “ANTIMICROBIAL CaNCR PEPTIDE FOLDING VARIANTS” (Donald Danforth Plant Science Center, priority 2022, published 2025):
Where “and” joins values, the source holds several entries; their conditions need not be identical. Equal entries are not always repeated. Bridge positions count the residues as written; N and C are the ends. Ends that are not written are not given here.

Tests used:
Alternaria alternata [1] = test: Microscopic observation of antifungal activity (light microscope, 20x); type: cell-based; conditions: A. alternata; peptide at 3 μM
Text: (§1) The presence of germinating conidia/mycelial fragments was observed under a light microscope at 20× magnification. […] (FIG. 3A).

Cercospora sojina [2] = test: as above; type: cell-based
Text: as §1

[3] = test system: Sclerotinia sclerotiorum 555; test: In vitro antifungal activity, 24-well plate mycelial plug assay; type: cell-based; conditions: 2 dpi; for SFM MIC: Sclerotinia sclerotiorum 555
Protocol: Sclerotinia sclerotiorum (S. sclerotiorum) 555 fungal cultures were grown on potato dextrose agar (PDA) medium (Difco Laboratories Inc., Detroit, MI, USA) at room temperature.
The antifungal activity of NCR13_PFV1 against S. sclerotiorum 555 was measured in an in vitro assay using 24-wells plate assay. Mycelial plugs (1 mm in diameter) cut from the margin of two day-old actively growing colony were transferred from potato dextrose agar media to a series of wells containing 125 microliter (L) of 2×SFM medium (U.S. Pat. No. 6,916,970), with 125 μL of NCR13_PFV1 at varying concentrations of 3, 6, 12 and 24 μM. The plates were incubated at room temperature for 2 days prior to assessment. The mycelium diameter growth was measured 2 dpi using ImageJ software. NCR13 PFV1 peptide effects were calculated as a percentage from the difference between growth of the control and treated mycelium using the formula:
IG (%)=(Dc−Dt)/Dc×100; where IG is inhibition of growth, Dc is the mycelium diameter (mm) of the control and Dt is the mycelium diameter (mm) of the peptide-treated dishes.

Alternaria alternata [4] = test: Antifungal MIC, 96-well plate spectrophotometric / resazurin cell viability assay; type: cell-based; conditions: Synthetic Fungal Medium
Protocol: (§2) The fungal strain of Botrytis cinerea T-4 was cultured in 20% V8 growth medium. Alternaria alternata was grown on potato dextrose agar. Fungal spores were harvested by flooding the fungal growth plates with sterile water. The spore suspension was filtered through two layers of Miracloth, centrifuged at 13,600 rpm for 1 min, washed, and re-suspended in low-salt Synthetic Fungal Medium (SFM) (U.S. Pat. No. 6,916,970). The spore suspension was adjusted to equivalent spore density using a hemocytometer.
Cercospora sojina and Alternaria alternata conidia were harvested from a fully grown culture plate by gently dislodging the conidia with an L-spreader in the presence of 5 ml sterile water. […]
Antifungal activity of NCR13_PFV1 and NCR13_PFV2 was assessed at different concentrations using a 2-fold dilution series of each peptide. Antifungal activity of each peptide was determined spectrophotometrically using the 96-well plate assay (Sagaram et al., (2011) PLoS One. doi: 10.1371/journal.pone.0018550; Sagaram et al., (2013). PLoS One. 2013 Dec. 4; 8(12):e82485. doi: 10.1371/journal.pone.0082485). […] The quantitative fungal growth inhibition was determined by measuring the absorbance at 595 nm using a microplate reader (Tecan Infinite M200 ProTecan Systems Inc., San Jose, CA) after 48 h. […]

Botrytis cinerea [5] = test: as above; type: cell-based; conditions: for SFM + 2 mM CaCl2 (antifungal activity/MIC): SFM supplemented with 2 mM CaCl2; for SM + 100 mM NaCl (antifungal activity/MIC): medium supplemented with 100 mM NaCl
Protocol: as §2
Antifungal activity of NCR13_PFV1 and NCR13_PFV2 was assessed at different concentrations using a 2-fold dilution series of each peptide. Antifungal activity of each peptide was determined spectrophotometrically using the 96-well plate assay (Sagaram et al., (2011) PLoS One. doi: 10.1371/journal.pone.0018550; Sagaram et al., (2013). PLoS One. 2013 Dec. 4; 8(12):e82485. doi: 10.1371/journal.pone.0082485). Forty-five microliters of each peptide at different concentrations was added to each well of the microtiter plate containing 45 μL of ˜10^5 spores/ml spore suspension. The quantitative fungal growth inhibition was determined by measuring the absorbance at 595 nm using a microplate reader (Tecan Infinite M200 ProTecan Systems Inc., San Jose, CA) after 48 h. The fungal cell viability was determined by the resazurin cell viability assay (Li et al., 2019, MPMI 32, 1649-1664; Velivelli et al., 2020, doi.org/10.1073/pnas.2003526117). After incubation of the pathogen/peptide mixture for 48 h, […] 0.1% resazurin solution was added to each well. After incubation of the mixture overnight, a change in the color of the resazurin dye from blue to pink or colorless indicated the presence of live fungal cells. The MIC for each peptide was the lowest concentration of each peptide at which no change in blue color occurred. Using this protocol, the MIC value of NCR13_PFV1 and NCR13_PFV2 was also determined in presence of 100 mM NaCl and 2 mM CaCl2).
The MIC of NCR13_PFV1 and NCR13_PFV2 against B. cinerea was determined (Table 3). MIC assays were carried out in 2×SFM. […] We therefore determined antifungal activity of NCR13_PFV1 and NCR13_PFV2 in SFM supplemented with 100 mM NaCl or 2 mM CaCl2) (Table 3).

Cercospora sojina [6] = test: as above; type: cell-based; conditions: Synthetic Fungal Medium
Protocol: Cercospora sojina and Alternaria alternata conidia were harvested from a fully grown culture plate by gently dislodging the conidia with an L-spreader in the presence of 5 ml sterile water. To remove mycelial fragments, the spore suspension was filtered through three layers of miracloth and washed twice with sterile water at 13,000 rpm for 2 minutes. The spore concentration was adjusted to 1×10^5 spores/ml using a hemocytometer.
Antifungal activity of NCR13_PFV1 and NCR13_PFV2 was assessed at different concentrations using a 2-fold dilution series of each peptide. Antifungal activity of each peptide was determined spectrophotometrically using the 96-well plate assay (Sagaram et al., (2011) PLoS One. doi: 10.1371/journal.pone.0018550; Sagaram et al., (2013). PLoS One. 2013 Dec. 4; 8(12):e82485. doi: 10.1371/journal.pone.0082485). Forty-five microliters of each peptide at different concentrations was added to each well of the microtiter plate containing 45 μL of ˜10^5 spores/ml spore suspension. The quantitative fungal growth inhibition was determined by measuring the absorbance at 595 nm using a microplate reader (Tecan Infinite M200 ProTecan Systems Inc., San Jose, CA) after 48 h. The fungal cell viability was determined by the resazurin cell viability assay (Li et al., 2019, MPMI 32, 1649-1664; Velivelli et al., 2020, doi.org/10.1073/pnas.2003526117). […]

Botrytis cinerea [7] = test: Tomato fruit infection assay, drop inoculation; type: in vivo; conditions: for visible fungal growth on tomato fruits: B. cinerea, 0.75 μM peptide applied 12 hpi, 3 dpi; for control of B. cinerea growth in tomato fruits: 0.75 μM peptide, 5 dpi
Protocol: Antifungal activity assays were performed on commercially available tomato fruits. A total of 36 tomato fruits (12 fruits per treatment) were washed with 0.01% bleach and rinsed three times with sterile distilled water. Carborundum Powder (Fisher Chemical, USA) was gently rubbed on the fruit surface to create microinjuries. The fruits were inoculated with 20 μl B. cinerea conidia (1×10^5 conidia ml-1) via drop inoculation. Conidia of B. cinerea were prepared as described above. Fruits were incubated in a Ziploc weather shield box containing moist paper towels to maintain high humidity after drop inoculation. 20 μl of peptide solution (0.75 μM of NCR13_PFV1 or NCR13_PFV2) was applied to the drop inoculated conidial suspension at 12 hours post-inoculation (hpi) and incubated for 5 days.

B. cinerea = test: Semi-in planta drop-inoculation assay, gray mold on detached N. benthamiana leaves; type: in vivo, Botrytis cinerea; conditions: for inhibition of gray mold disease symptoms: 3 μM
Text: FIG. 4 depicts a drop-inoculation assay showing semi-in planta antifungal activity of NCR13_PFV1 and NCR13_PFV2 in detached N. benthemiana leaves.
In semi-in-planta studies, detached leaves of N. benthamiana, were used to check the potential of both NCR13_PFV1 and NCR13_PFV2 to reduce gray mold disease symptoms caused by B. cinerea (FIG. 4).

S. sclerotiorum 555 [8] = test: Semi-in planta antifungal assay on detached soybean leaves; type: in vivo, Sclerotinia sclerotiorum; conditions: 2 dpi
Protocol: Representative pictures (under white light and with CropReporter based on the value of potential photosynthetic efficiency Fv/Fm) taken 48 h post-infection showing the antifungal activity of NCR13_PFV1.
(§3) For the semi-in planta antifungal assays, a 1 mm plug was taken from the leading edge of freshly cultured 2-day old fungal colony from PDA media and placed on approximately 3-4 weeks of age detached soybean leaves and pods (6 weeks of age). Then, 40 μL solution of NCR13_PFV1 at various concentrations or water was applied immediately on the plug and were allowed to incubate under high humidity for 2-3 days prior to assessment. The severity of disease lesions on each leaf was assessed using the CropReporter system as described in Li et al. Mol Plant Microbe Interact. 2019; 32:1649-1664. doi: 10.1094/MPMI-08-19-0224-R. Epub 2019 Oct. 28. PMID: 31425003. In addition, high-resolution fluorescence images were taken using CropReporter (PhenoVation, Wageningen, Netherlands).

S. sclerotiorum 555 [9] = test: Semi-in planta antifungal assay on detached soybean pods; type: in vivo, Sclerotinia sclerotiorum; conditions: 3 dpi
Protocol: Representative pictures taken 72 h post-infection showing the antifungal activity of NCR13_PFV1.
as §3
Detached soybean pods from 6-week-old plants were infected with 1 mm plug of S. sclerotiorum 555 followed by the application of a drop of NCR13_PFV1 on the plug. […] We observed that NCR13_PFV1 confers fungicidal activity with 100% protection against S. sclerotiorum 555 at 3 dpi (FIG. 6).

Substance | conidial germination / mycelial growth under the microscope (Alternaria alternata [1]) | concentration at which C. sojina growth was inhibited (microscopy) (Cercospora sojina [2]) [µM] | fold higher inhibitory concentration versus the other folding variant (Cercospora sojina [2]; C. sojina) | SFM MIC [3] | SFM MIC (Alternaria alternata [4]) | SFM + 2 mM CaCl2 (antifungal activity/MIC) (Botrytis cinerea [5]) | SFM MIC (Botrytis cinerea [5]; Synthetic Fungal Medium, 48 h, resazurin) [µM] | SM + 100 mM NaCl (antifungal activity/MIC) (Botrytis cinerea [5]) | SFM MIC (Cercospora sojina [6]) [µM] | visible fungal growth on tomato fruits (Botrytis cinerea [7]) | inhibition of gray mold disease symptoms (B. cinerea) | lesion size (S. sclerotiorum 555 [8]) | S. sclerotiorum 555 mycelial growth in vitro ([3]; 3, 6, 12 and 24 μM) | antifungal activity of NCR13_PFV1 relative to NCR13_PFV2 (from MIC) (Botrytis cinerea [5]) | protection against S. sclerotiorum 555 (S. sclerotiorum 555 [9]) [%] | lesion or decay development (S. sclerotiorum 555 [9]; compared to water control) | control of B. cinerea growth in tomato fruits (Botrytis cinerea [7]) | control of B. cinerea growth in tomato fruits (Botrytis cinerea [7]; listed as NCR13 PFV1) | activity against gray mold disease relative to NCR13_PFV2 (B. cinerea)
NCR13_PFV2: NCR13-Ala peptide (SEQ ID NO: 2) expressed in Pichia pastoris, HPLC Peak2 folding variant (ATKPCQSDKDCKKFACRKPKVPKCINGFCKCVR; not fully specified; cysteine pairing not given here) | significant mycelial growth | 3 | ~17 | 24.0 µM | 3 µM and 3.0 µM | Inactive | 1.5 | Inactive | 1.5 | visible fungal growth | only partially inhibitory | – | – | – | – | – | – | – | –
NCR13_PFV1: NCR13-Ala peptide (SEQ ID NO: 2) expressed in Pichia pastoris, HPLC Peak1 folding variant (ATKPCQSDKDCKKFACRKPKVPKCINGFCKCVR; disulfide 11-29, 16-31, 5-24) | complete inhibition of conidial germination | 0.18 | – | 6 µM and 6.0 µM | 0.75 µM | Inactive | – | Inactive | – | no visible fungal growth | completely inhibitory | significantly decreased lesion sizes | progressively reduced in size with increasing concentrations | fourfold or greater | 100 | no lesion or decay development | effective in controlling B. cinerea fungal growth | effective | two-fold higher activity
